Data as given in PMC9376891 (Nature Communications, 2022).

Target: Rae1_31-368-Nup98_157-213 heterodimer (Rae1-Nup98 complex) (Homo sapiens, UniProt P52948+P78406)
Experiment: biochemical
Assay type: binding

Rae1_31-368-Nup98_157-213 heterodimer (Rae1-Nup98 complex), sequence (P78406 31-368 limits assumed): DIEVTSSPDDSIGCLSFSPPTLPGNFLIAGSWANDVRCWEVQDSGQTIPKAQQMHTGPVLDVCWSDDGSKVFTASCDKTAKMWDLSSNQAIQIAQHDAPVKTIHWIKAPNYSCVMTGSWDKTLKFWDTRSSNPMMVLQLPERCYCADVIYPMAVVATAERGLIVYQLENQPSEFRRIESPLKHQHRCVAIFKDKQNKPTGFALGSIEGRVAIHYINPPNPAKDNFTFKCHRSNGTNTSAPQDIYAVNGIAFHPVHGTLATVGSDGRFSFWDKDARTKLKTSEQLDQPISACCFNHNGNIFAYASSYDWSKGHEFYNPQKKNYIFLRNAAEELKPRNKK
Rae1_31-368-Nup98_157-213 heterodimer (Rae1-Nup98 complex), sequence (P52948 157-213 partner limits assumed): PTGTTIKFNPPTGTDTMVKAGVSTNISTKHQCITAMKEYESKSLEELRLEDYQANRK

CSCC[C@H](NC(=O)[C@H](CCC(=O)O)NC(=O)[C@@H](N)CC(=O)O)C(=O)N[C@@H](CC(=O)O)C(=O)N[C@H](C(=O)N[C@@H](Cc1c[nH]cn1)C(=O)N[C@@H](CC(=O)O)C(=O)N1CCC[C@H]1C(=O)N[C@@H](CC(N)=O)C(=O)N[C@@H](CCC(N)=O)C(=O)N[C@@H](CC(C)C)C(=O)N[C@@H](CCCNC(=N)N)C(=O)N[C@@H](Cc1ccc(O)cc1)C(=O)O)[C@@H](C)O [VSV M NTE]
Kd: 117 µM
